From patent publication US20210002725A1, “METHODS FOR THE DIAGNOSIS OF METABOLIC DISORDERS USING EPIMETABOLIC SHIFTERS, MULTIDIMENSIONAL INTRACELLULAR MOLECULES, OR ENVIRONMENTAL INFLUENCES” (Berg LLC, priority 2009, published 2021)

How the values were obtained:
SK-MEL-28 mitochondria = assay: LC-MS/MS quantification of Q10 and Q10H2 in mitochondrial enriched samples; format: cell-based; settings: for Peak Area Q10: 20% injection
Experimental: Ten μl of each sample was injected.

HASMC cells = assay: SeaHorse XF analyzer OCR and ECAR; format: cell-based, human; settings: hyperglycemic cells in hypoxic conditions
Excerpt: Environmental influencers (e.g., MIMs or Epi-shifters) may also be identified by changes in cellular energetics. One example of the measurement of cellular energetics are the real-time measures of the consumption of molecular oxygen and/or the change in pH of the media of a cell culture. For example, the ability of a potential epi-shifter to modulate the metabolic state of a cell may be analyzed using, for example, the XF24 Analyzer (Seahorse, Inc.). This technology allows for real time detection of oxygen and pH changes in a monolayer of cells in order to evaluate the bioenergetics of a cell microenvironment. The XF24 Analyzer measures and compares the rates of oxygen consumption (OCR), which is a measure of aerobic metabolism, and extracellular acidification (ECAR), which is a measure of glycolysis, both key indicators of cellular energetics.
(SeaHorse Biosciences Inc, North Billerica, Mass.).
In this experiment, the OCR and extracellular acidification rate (ECAR) in normal cells lines were obtained in the presence and absence of CoQ10 to determine baseline values. It was observed that in its native nutrient environment, the basal OCR rates in normal cells lines are different, and are usually a function of the physiological roles of the cells in the body. […]

SMILES: COC1=C(OC)C(=O)C(C/C=C(\C)CC/C=C(\C)CC/C=C(\C)CC/C=C(\C)CC/C=C(\C)CC/C=C(\C)CC/C=C(\C)CC/C=C(\C)CC/C=C(\C)CCC=C(C)C)=C(C)C1=O [Q10, Coenzyme Q10]
- increase in mitochondrial Q10 levels (SK-MEL-28 mitochondria; 100 μM Q10, 19 hours, vs untreated): ~3 fold
- increase in mitochondrial Q10H2 levels (SK-MEL-28 mitochondria; 100 μM Q10, 48 hour sample, near detection limit): 3 fold
- Peak Area Q10 (SK-MEL-28 mitochondria; 100 μM Q10 in the media, 6 hr): 25427
- Peak Area Q10 (SK-MEL-28 mitochondria; 100 μM Q10 in the media, 19 hr): 59164
- Q10H2 (reduced form) in mitochondrial enriched sample (SK-MEL-28 mitochondria; 100 μM Q10 in the media, 48 hr): 0.28 ng/Sample
- Peak Area Q10 (SK-MEL-28 mitochondria; 100 μM Q10 in the media, 48 hr): 164496
- form of Q10 in mitochondria (oxidized vs reduced) (SK-MEL-28 mitochondria; exogenous addition of Q10 to the media): maintained in the supplied oxidized form
- ECAR rates (HASMC cells): downward trend
